Results from ChEMBL document CHEMBL4651402, “Screening of ~5500 FDA-approved drugs and clinical candidates for anti-SARS-CoV-2 activity” (2021).
Bridge positions count the residues as written; N and C are the ends. Square brackets hold non-standard residues; d marks the D form. Peptide text beside a SMILES is read from it. * marks the point of attachment. Ileψ(thiazoline)Cys = CC[C@H](C)[C@H](N)C1=N[C@H](C(=O)*)CS1; dOrn = NCCC[C@@H](N)C(=O)O

Test system: SARS-CoV-2
Assay: microbe, parasite or virus in culture
Conditions: Severe acute respiratory syndrome coronavirus 2, Vero C1008, 48 h

| Structure (SMILES) | IC50 [µM] | IC50 (read-out: pIC50 (converted)) [µM] |
| --- | --- | --- |
| Cc1c(C)c2c(c(C)c1O)CCC(C)(C(=O)O)O2 (stereo not drawn) [TROLOX] | > 20 | > 20 |
| CCN(CCCC(=O)C1CCCCC1)[C@@H](C)Cc1ccc(OC)cc1 [DEXSECOVERINE] | > 20 | > 20 |
| C[C@@H](OC[C@@]1(c2ccccc2)CC[C@]2(CCC(=O)N2)CN1)c1cc(C(F)(F)F)cc(C(F)(F)F)c1 [ROLAPITANT] | > 20 | > 20 |
| CCn1cc(C(=O)O)c(=O)c2ccc(Cc3ccccc3)nc21 [AMFONELIC ACID] | > 20 | > 20 |
| N=C(N)c1ccc(CNC(=O)[C@@H]2CCN2C(=O)[C@H](NCC(=O)O)C2CCCCC2)cc1 | > 20 | > 20 |
| CCCCCCOc1nsnc1C1=CCCN(C)C1 [XANOMELINE] | > 20 | > 20 |
| O=C(CO)[C@@H]1CCCN1C(=O)[C@@H]1CCCN1C(=O)NCc1ccccc1 | > 20 | > 20 |
| O=c1[nH]c2ccccc2n1CCN1CCN(c2cccc(C(F)(F)F)c2)CC1 [FLIBANSERIN] | > 20 | > 20 |
| C=CCc1ccccc1OCC(O)CNC(C)C (stereo not drawn) [ALPRENOLOL] | > 20 | > 20 |
| C[C@@H]1C(=O)NC2=Nc3cccc(Cl)c3CN21 [QUAZINONE] | > 20 | > 20 |
| CC(O)COC[C@H]1O[C@@H]2O[C@H]3[C@H](O)[C@@H](O)[C@@H](O[C@H]4[C@H](O)[C@@H](O)[C@@H](O[C@H]5[C@H](O)[C@@H](O)[C@@H](O[C@H]6[C@H](O)[C@@H](O)[C@@H](O[C@H]7[C@H](O)[C@@H](O)[C@@H](O[C@H]8[C@H](O)[C@@H](O)[C@@H](O[C@H]1[C@H](O)[C@H]2O)O[C@@H]8COCC(C)O)O[C@@H]7COCC(C)O)O[C@@H]6COCC(C)O)O[C@@H]5COCC(C)O)O[C@@H]4COCC(C)O)O[C@@H]3COCC(C)O (stereo partly drawn) [2-HYDROXYPROPYL-BETA-CYCLODEXTRIN] | > 20 | > 20 |
| CC(=O)Nc1ccc(OC(C)=O)cc1 [DIACETAMATE] | > 20 | > 20 |
| O=C(O)CCCCC1CCSS1 (stereo not drawn) [LIPOIC ACID, ALPHA] | > 20 | > 20 |
| CCOc1nc2cccc(C(=O)O)c2n1Cc1ccc(-c2ccccc2-c2nnn[nH]2)cc1 | > 20 | > 20 |
| Cc1cccc(N(C)C(=S)Oc2ccc3c(c2)C2CCC3C2)c1 (stereo not drawn) [TOLCICLATE] | > 20 | > 20 |
| CO[C@H]1[C@H](O)[C@H](O[C@H]2CC[C@@]3(C=O)[C@H](CC[C@@H]4[C@@H]3CC[C@]3(C)[C@@H](C5=CC(=O)OC5)CC[C@]43O)C2)O[C@@H](C)[C@@H]1O [PERUVOSIDE] | > 20 | > 20 |
| Nc1nc(Cl)nc2c1ncn2[C@@H]1O[C@H](CO)[C@@H](O)[C@@H]1F [CLOFARABINE] | > 20 | > 20 |
| N=C(Nc1ccccc1)Nc1ccccc1 | > 20 | > 20 |
| COc1ccccc1N1CCN(CCCC(=O)c2ccc(F)cc2)CC1 [FLUANISONE] | > 20 | > 20 |
| Cc1ccccc1-c1cc(N2CCN(C)CC2)ncc1N(C)C(=O)C(C)(C)c1cc(C(F)(F)F)cc(C(F)(F)F)c1 [NETUPITANT] | > 20 | > 20 |
| CC(=O)OC1CCC2(C)C(=CCC3C2CCC2(C)C(O)CCC32)C1 (stereo not drawn) | > 20 | > 20 |
| COC(=O)C(N)CCCNC(=N)N[N+](=O)[O-] (stereo not drawn) | > 20 | > 20 |

| Structure (SMILES) | IC50 [µM] | IC50 (read-out: pIC50 (converted)) [µM] |
| --- | --- | --- |
| C=C1C(=O)OC2C[C@@]3(C)CCC[C@H](C)C3=CC12 (stereo partly drawn) | > 20 | > 20 |
| CN(C(=O)C(c1ccccc1)c1ccccc1)[C@H](CN1CC[C@H](O)C1)c1ccccc1 [ASIMADOLINE] | > 20 | > 20 |
| N#Cc1cc(NC(=O)C(=O)O)c(Cl)c(NC(=O)C(=O)O)c1 [LODOXAMIDE] | > 20 | > 20 |
| CCOC(=O)N1c2ccc(C(F)(F)F)cc2[C@@H](N(Cc2cc(C(F)(F)F)cc(C(F)(F)F)c2)C(=O)OC)C[C@H]1CC [TORCETRAPIB] | > 20 | > 20 |
| C=C1[C@@H](C)[C@H]2[C@H](Cc3ccccc3)NC(=O)[C@]23OC(=O)/C=C\[C@H](O)CCC[C@@H](C)C/C=C\[C@H]3[C@@H]1O | > 20 | > 20 |
| C=C1[C@H](CO)[C@@H](O)C[C@@H]1n1cnc2c(=O)[nH]c(N)nc21 | > 20 | > 20 |
| COC(=O)[C@H](Cc1ccccc1)NC(=O)[C@@H](N)CC(=O)O | > 20 | > 20 |
| N/C=C1\Cc2ccccc2C1=O | > 20 | > 20 |
| CC(C)[C@H](N/C(=N\S(=O)(=O)c1ccc(Cl)cc1)N1C[C@H](c2ccccc2)C(c2ccc(Cl)cc2)=N1)C(N)=O | > 20 | > 20 |
| COc1cnc(NS(=O)(=O)c2ccc(N)cc2)nc1 | > 20 | > 20 |
| COc1cc(-c2ccc(=O)[nH]n2)ccc1OC(F)F [ZARDAVERINE] | > 20 | > 20 |
| CC[C@H](C)[C@H]1O[C@]2(C=C[C@@H]1C)C[C@@H]1C[C@@H](C/C=C(/C)[C@@H](O[C@H]3C[C@H](OC)[C@@H](O[C@H]4C[C@H](OC)[C@@H](O)[C@H](C)O4)[C@H](C)O3)[C@@H](C)/C=C\C=C3\CO[C@@H]4[C@H](O)C(C)=C[C@@H](C(=O)O1)[C@]34O)O2 | > 20 | > 20 |
| CCCCC(C(=O)O)C(=O)N(Nc1ccccc1)c1ccccc1 (stereo not drawn) [BUMADIZONE] | > 20 | > 20 |
| CCN1CC(NC(=O)c2cc(Cl)c(N)cc2OC)CN1CC [DAZOPRIDE] | > 20 | > 20 |
| CCCn1c(=O)c2[nH]c(C3CCCC3)nc2n(CCC)c1=O [1,3-DIPROPYL-8-CYCLOPENTYLXANTHINE [DPCPX]] | > 20 | > 20 |
| C=CC(=O)Nc1cccc(Oc2nc(Nc3ccc(N4CCN(C)CC4)c(F)c3)nc3[nH]ccc23)c1 [ABIVERTINIB] | > 20 | > 20 |
| CCOc1ccc(-c2ccc(Cn3c(CC(C)(C)C(=O)O)c(SC(C)(C)C)c4cc(OCc5ccc(C)cn5)ccc43)cc2)cn1 [FIBOFLAPON] | > 20 | > 20 |
| CCC1(c2ccc(N)cc2)CCC(=O)NC1=O (stereo not drawn) [AMINOGLUTETHIMIDE] | > 20 | > 20 |
| CCOC(=O)[C@H](CCc1ccccc1)N[C@@H](C)C(=O)N1Cc2ccccc2C[C@H]1C(=O)O | > 20 | > 20 |
| C[C@H]1CN([C@H]2CC[C@](C#N)(c3ccc(F)cc3)CC2)CC[C@]1(C(=O)O)c1ccccc1 | > 20 | > 20 |
| Nc1c(CC(=O)O)cccc1C(=O)c1ccc(Br)cc1 [BROMFENAC] | > 20 | > 20 |
| CC[n+]1c(-c2ccccc2)c2cc(N)ccc2c2ccc(N)cc21 [HOMIDIUM] | > 20 | > 20 |

| Structure (SMILES) | IC50 [µM] | IC50 (read-out: pIC50 (converted)) [µM] |
| --- | --- | --- |
| CCOC(=O)CC(SP(=S)(OC)OC)C(=O)OCC (stereo not drawn) [MALATHION] | > 20 | > 20 |
| Cc1ccc(S(=O)(=O)NC(=O)NC2C3CCC(C)(C2O)C3(C)C)cc1 (stereo not drawn) | > 20 | > 20 |
| CCCN1CCOC2c3cc(O)ccc3CCC21 (stereo not drawn) | > 20 | > 20 |
| CC(C)CCCC(C)C1CCC2C3CC[C@H]4CC(O)CCC4(C)C3CCC12C (stereo partly drawn) | > 20 | > 20 |
| NS(=O)(=O)c1cc(C(=O)NN2CC3C4CCC(C4)C3C2)ccc1Cl (stereo not drawn) | > 20 | > 20 |
| C#C[C@]1(OC(C)=O)CC[C@H]2[C@@H]3CCC4=CC(=O)CC[C@@H]4[C@H]3CC[C@@]21C [NORETHINDRONE ACETATE] | > 20 | > 20 |
| NCCc1c[nH]cn1 [HISTAMINE] | > 20 | > 20 |
| CC1=CC(=O)c2ccccc2C1=O [MENADIONE] | > 20 | > 20 |
| CN(NC(=O)CC(=O)NN(C)C(=S)c1ccccc1)C(=S)c1ccccc1 [ELESCLOMOL] | > 20 | > 20 |
| CC(C)N1CCN(c2ccc(N3CCN(c4ccc(OC[C@@H]5OC[C@@](Cn6cncn6)(c6ccc(F)cc6F)O5)cc4)CC3)cc2)C1=O | > 20 | > 20 |
| C=CCN1CC[C@]23c4c5ccc(O)c4O[C@H]2C(=O)CC[C@@]3(O)[C@H]1C5 [NALOXONE] | > 20 | > 20 |
| Cc1noc(NS(=O)(=O)c2ccc(N)cc2)c1C [SULFISOXAZOLE] | > 20 | > 20 |
| CC[C@H](C)[C@H](N)C1=N[C@H](C(=O)N[C@@H](CC(C)C)C(=O)N[C@H](CCC(=O)O)C(=O)N[C@H](C(=O)N[C@H]2CCCCNC(=O)[C@H](CC(N)=O)NC(=O)[C@@H](CC(=O)O)NC(=O)[C@H](Cc3cnc[nH]3)NC(=O)[C@@H](Cc3ccccc3)NC(=O)[C@H]([C@@H](C)CC)NC(=O)[C@@H](CCCN)NC2=O)[C@@H](C)CC)CS1 [BACITRACIN] ({Ileψ(thiazoline)Cys}-L[dE]IK[dOrn]I[dF]H[dD]N; lactam 4-C) | > 20 | > 20 |
| CN1CCN(C(c2ccccc2)c2ccccc2)CC1 [CYCLIZINE] | > 20 | > 20 |
| CC1(C)C2CC[C@@]1(C)C(=O)C2 | > 20 | > 20 |
| O=[N+]([O-])c1cncn1CCN1CCOCC1 [NIMORAZOLE] | > 20 | > 20 |
| CCOC(=O)[C@H](CCc1ccccc1)N[C@@H](C)C(=O)N1[C@H](C(=O)O)C[C@H]2CCCC[C@@H]21 [TRANDOLAPRIL] | > 20 | > 20 |
| C[C@H]1C[C@@H]2[C@H]([C@@H](O)C[C@@]3(C)[C@H]2CC[C@]3(O)C(=O)CO)[C@@]2(C)C=CC(=O)C=C12 [METHYLPREDNISOLONE] | > 20 | > 20 |
| O=C(O)CP(=O)(O)O [FOSFONET] | > 20 | > 20 |
| C[C@]12CC[C@H]3[C@@H](CCC4=CC(=O)CC[C@@]43C)[C@@H]1CC[C@@H]2C(=O)CO [DESOXYCORTICOSTERONE] | > 20 | > 20 |
